Where “and” joins values, the source holds several entries; their conditions need not be identical. Equal entries are not always repeated.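 All cell lines were grown in 96-well plates and treated with compound for 48 hours. At the GI50, growth is halved. TGI denotes the concentration required for complete inhibition of growth.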
Legend:
Assay in all cases: growth of human tumour cells (NCI), 48 h
CCRF-CEM leukemia = tested on: CCRF-CEM leukemia
SF-295 CNS = tested on: SF-295 CNS
HT29 colon = tested on: HT29 colon
UO-31 renal = tested on: UO-31 renal
NCI-H226 lung = tested on: NCI-H226 lung
MALME-3M melanoma = tested on: MALME-3M melanoma
RPMI-8226 leukemia = tested on: RPMI-8226 leukemia
TK-10 renal = tested on: TK-10 renal
HCC-2998 colon = tested on: HCC-2998 colon
HCT-15 colon = tested on: HCT-15 colon

SMILES	GI50 (CCRF-CEM leukemia)	TGI (CCRF-CEM leukemia)	GI50 (SF-295 CNS)	TGI (SF-295 CNS)	GI50 (HT29 colon)	TGI (HT29 colon)	GI50 (UO-31 renal)	TGI (UO-31 renal)	GI50 (NCI-H226 lung)	TGI (NCI-H226 lung)	GI50 (MALME-3M melanoma)	TGI (MALME-3M melanoma)	GI50 (RPMI-8226 leukemia)	TGI (RPMI-8226 leukemia)	GI50 (TK-10 renal)	TGI (TK-10 renal)	GI50 (HCC-2998 colon)	TGI (HCC-2998 colon)	GI50 (HCT-15 colon)	TGI (HCT-15 colon)
O=C(Nc1cccc(-n2cc(-c3ccncc3)c(-c3ccc(O)c(Cl)c3)n2)c1)c1ccc(N2CCOCC2)c(C(F)(F)F)c1	1.34 µM	> 50 µM	1.24 µM	4.32 µM	2.36 µM	> 50 µM	2.99 µM	> 50 µM	> 50 µM	> 50 µM	2.8 µM	> 50 µM	1.04 µM	4.24 µM	> 50 µM	> 50 µM	3.44 µM	> 50 µM	1.21 µM	> 50 µM
COc1cccc(N2C(=O)[C@H]3[C@H]4CC(C(C)(C)C)CC[C@H]4c4c([nH]c5ccccc45)[C@H]3C2=O)c1 (stereo not given in full)		29.7 µM		29.2 µM		92.1 µM		35.5 µM		40.3 µM		47.4 µM		35 µM		28.8 µM		> 100 µM		> 100 µM
COC(=O)c1cc(NC(=O)CN(CCN(CC(=O)O)CC(=O)Nc2ccc(O)c(C(=O)OC)c2)CC(=O)O)ccc1O	30.9 µM	> 100 µM	25.8 µM	> 100 µM	> 100 µM	> 100 µM	42.7 µM	> 100 µM	> 100 µM	> 100 µM	> 100 µM	> 100 µM	> 100 µM	> 100 µM	> 100 µM	> 100 µM	97.4 µM	> 100 µM	> 100 µM	> 100 µM
[O]=[W](=[O])([OH])[OH]	> 100 µM	> 100 µM	> 100 µM	> 100 µM	> 100 µM	> 100 µM	> 100 µM	> 100 µM	> 100 µM	> 100 µM	> 100 µM	> 100 µM	> 100 µM	> 100 µM	> 100 µM	> 100 µM	> 100 µM	> 100 µM	> 100 µM	> 100 µM
Cc1cccc2c1NC(=O)C2(c1ccc(O)cc1)c1ccc(O)cc1	22.3 µM	> 100 µM	12.6 µM	38.1 µM	15.7 µM	46.5 µM	13.1 µM	78.8 µM	18 µM	59 µM	17.8 µM	55.5 µM	17.9 µM	64 µM	0.0206 µM	39.1 µM	0.0706 µM	24.6 µM	0.53 µM	> 100 µM
NC(=O)OCC(COc1ccc(Cl)cc1)OC(=O)c1cc([N+](=O)[O-])cc([N+](=O)[O-])c1 (stereo not given)		> 100 µM		> 100 µM		> 100 µM		> 100 µM		> 100 µM		> 100 µM		> 100 µM		> 100 µM		> 100 µM		> 100 µM
CS(=O)(=O)c1ccc(-c2[nH]c3ccc(F)cc3c2/C=N/NC(N)=S)cc1	0.366 µM	27.2 µM	0.899 µM	13.1 µM	0.558 µM	15.2 µM	2.84 µM	> 100 µM	3.28 µM	> 100 µM	7.83 µM	41 µM	0.475 µM	6.64 µM	5.88 µM	> 100 µM	2.95 µM	14.7 µM	0.611 µM	> 100 µM
Cc1ccc(S(=O)(=O)NC(=O)C#CCOC2CCCCO2)cc1 (stereo not given)		> 100 µM		> 100 µM		> 100 µM		> 100 µM		> 100 µM		> 100 µM		> 100 µM		> 100 µM		> 100 µM		> 100 µM
CCC[CH2][Ge]([CH2]CCC)([CH2]CCC)[O]C(=O)C(OC(C)=O)c1ccccc1 (stereo not given)	0.229 µM	> 26.1 µM	4.02 µM	23.3 µM	0.742 µM	13.8 µM	1.5 µM	18.5 µM	0.351 µM	19.7 µM	1.16 µM	19.4 µM	0.297 µM	4.82 µM	8.06 µM	54.3 µM	0.53 µM	5.63 µM	1.73 µM	14.5 µM
O=C1c2ccccc2CCC1(Br)Br	0.365 µM	2.01 µM	14.6 µM	28 µM	2.28 µM	4.43 µM	1.27 µM	2.6 µM	1.98 µM	4.56 µM	1.06 µM	2.75 µM	1.99 µM	4.9 µM	1.5 µM	2.88 µM	3.88 µM	9.19 µM	0.743 µM	2.24 µM
CN1CCN(CCCN2c3ccccc3Sc3ccc(C(F)(F)F)cc32)CC1	2.35 µM and 2.17 µM and 8.25 µM	6 µM and 6.52 µM and 26.5 µM	1.76 µM	3.68 µM and 15.8 µM and 23.2 µM	1.53 µM	3.06 µM and 7.61 µM and 5.88 µM	2.31 µM	12 µM and 19.3 µM and 17.6 µM	2.16 µM	6.41 µM and 32.8 µM and 32.2 µM	1.69 µM	3.28 µM and 3.66 µM and 6.98 µM	2.21 µM and 2.06 µM and 6.37 µM	5.09 µM and 22.1 µM	1.78 µM and 4.01 µM and 11.6 µM	3.23 µM and 12.1 µM and 24.8 µM	1.42 µM and 1.64 µM and 3.82 µM	3.02 µM and 3.21 µM and 8.68 µM	2.43 µM	6.57 µM and 17.3 µM and 21.3 µM
O=C(c1ccncc1)N1CCN(C2=NS(=O)(=O)c3ccccc3N2c2ccccc2)CC1	1.95 µM	> 100 µM	9.87 µM	> 100 µM	19 µM	57.8 µM	36.4 µM	> 100 µM	17.1 µM	42.4 µM	23.6 µM	51.8 µM	35.5 µM	96.2 µM	31.5 µM	77.1 µM	16.3 µM	37.6 µM	> 100 µM	> 100 µM
COc1ccc(CCN2COc3ccc4ccc(=O)oc4c3C2)cc1OC		54.8 µM		> 100 µM		> 100 µM		> 100 µM		> 100 µM		> 100 µM		52.8 µM		> 100 µM		> 100 µM		> 100 µM
N#CC(C(=O)C(=O)Nc1ccc(Cl)c(Cl)c1)c1ccc(Cl)cc1 (stereo not given)		> 100 µM		> 100 µM		> 100 µM		> 100 µM		> 100 µM		> 100 µM		> 100 µM		> 100 µM		> 100 µM		> 100 µM
